Tested on: 817829-284-R-J1-PDC complex spheroids, viability
Test: Anticancer human tumor 817829-284-R-J1-PDC patient-derived colon adenocarcinoma cell line growth inhibition [GQUAD]
Conditions: for IC50: curve of first compound; for viability, T/C: stronger effect = lower value
From the text: DNA G-quadruplex Stabilizer Agents in Combinations in Complex Spheroids
A high-throughput screen of multi-cell type tumor spheroids was designed to identify active combinations of DNA G-quadruplex stabilizer agents and targeted small molecules. Complex spheroids include a stromal component modeled by human endothelial cells (HUVEC) and fibroblasts modeled by human mesenchymal stem cells (MSCs). The concentration ranges selected for each drug and investigational agent were based upon clinically achievable concentrations if the clinical Cmax of the agent was known.
Compounds. The drugs and investigational agents: pidnarulex (CX-5461; NSC782164), APTO-253 (NSC789042), BRACO-19 (NSC847499), peposertib (NSC802822), ceralasertib (NSC780249), elimusertib (NSC800525), camonsertib (NSC841442), AZD-1390 (NSC803789), olaparib (NSC753686), talazoparib (NSC767125), ART-558 (NSC835418), sotorasib (NSC818433), MRTX-1133 (NSC836407), SN-38 (NSC673596), topotecan (NSC609699), etoposide (NSC141540), doxorubicin (NSC123127), gemcitabine (NSC613327), 5-fluorouracil (NSC19893), paclitaxel (NSC125973), vemurafenib (NSC761431), panobinostat (NSC761190), R-306465 (JNJ-16241199; NSC773264), adavosertib (NSC754352), TP-3654 (NSC805149), carboplatin (NSC241240), KSQ-4279 (NSC840948), and staurosporine (NSC755774) were obtained from the National Cancer Institute (NCI) Developmental Therapeutics Program Chemical Repository (34). The FDA-approved anticancer drug set is available from the NCI Developmental Therapeutics Program. […] The stock solutions were prepared in dimethyl sulfoxide (DMSO, Sigma-Aldrich, St. Louis, MO, cat. D2650) at 800-fold the tested concentration and stored at -70 degrees C prior to their use. All drugs and investigational agents were tested over a range starting from a high concentration at or near the clinical Cmax and decreasing in half-log increments. If the clinical Cmax for an agent had not been determined, the highest concentration tested was 10 microM.
2.3 Cell Culture. All cells were maintained in an incubator at 37 degrees C and 5% CO2 with 95% humidity. The PDC lines were cultured according to standard operating procedures established by the NCI PDMR. All PDCs were thawed and cultured in Matrigel-coated flasks prepared with a working solution of 1X Ham's F-12 nutrient mix, without supplementation (Invitrogen, cat. 11765054), 100 U/mL penicillin-streptomycin (Invitrogen, cat. 15140122), and 2.5% Matrigel (Corning Inc., cat. 354248) for the first three passages. The 857933-349-R-J2-PDC line was cultured in 6C/Colon 1B media, which includes advanced DMEM/F-12 (Thermo Fisher Scientific, cat. 12634028), 10 mM HEPES (Thermo Fisher Scientific, cat. 15630080), 1X GlutaMAX supplement (Thermo Fisher Scientific, cat. 35050061), 0.1 mg/mL primocin (InvivoGen, cat. ant-pm-2), 10% defined fetal bovine serum, heat inactivated (HyClone Laboratories Inc., cat. SH30070.03HI), 50% L-WRN conditioned media (ATCC, cat. CRL-3276), 1.25 mM N-Acetyl-L-cysteine (Sigma-Aldrich, cat. A9165), 10 mM nicotinamide (Sigma-Aldrich, cat. N0636), 1X B-27 supplement (Thermo Fisher Scientific, cat. 17504044), 1X N-2 supplement (Thermo Fisher Scientific, cat. 17502048), 10 microM Y-27632 dihydrochloride (Tocris Bioscience, cat. 1254), and 50 ng/mL human EGF recombinant protein (Thermo Fisher Scientific, cat. PHG0311). The 485176-168-R4-J1-PDC line was cultured in Panc media, which includes all 6C/Colon 1B media components plus 100 ng/mL human FGF-10 (Thermo Fisher Scientific, cat. 100-26), 500 nM SB-431542 (Selleckchem, cat. S1067), and gastrin (Tocris, cat. 3006).
[…]

[1] = second compound 0.0316 µM, first compound 0.0316 µM
[2] = second compound 0.0316 µM, first compound 0.1 µM
[3] = second compound 0.0316 µM, first compound 0.316 µM
[4] = second compound 0.0316 µM, first compound 1 µM
[5] = second compound 0.0316 µM, first compound 3.16 µM
[6] = second compound 0.0316 µM, first compound 10 µM
[7] = second compound 0.1 µM, first compound 0.0316 µM
[8] = second compound 0.1 µM, first compound 0.1 µM
[9] = second compound 0.1 µM, first compound 0.316 µM
[10] = second compound 0.1 µM, first compound 1 µM
[11] = second compound 0.1 µM, first compound 3.16 µM
[12] = second compound 0.1 µM, first compound 10 µM
[13] = second compound 0.316 µM, first compound 0.0316 µM
[14] = second compound 0.316 µM, first compound 0.1 µM
[15] = second compound 0.316 µM, first compound 0.316 µM
[16] = second compound 0.316 µM, first compound 1 µM
[17] = second compound 0.316 µM, first compound 3.16 µM
[18] = second compound 0.316 µM, first compound 10 µM
[19] = second compound 1 µM, first compound 0.0316 µM
[20] = second compound 1 µM, first compound 0.1 µM
[21] = second compound 1 µM, first compound 0.316 µM
[22] = second compound 1 µM, first compound 1 µM
[23] = second compound 1 µM, first compound 3.16 µM
[24] = second compound 1 µM, first compound 10 µM
[25] = second compound 3.16 µM, first compound 0.0316 µM
[26] = second compound 3.16 µM, first compound 0.1 µM
[27] = second compound 3.16 µM, first compound 0.316 µM
[28] = second compound 3.16 µM, first compound 1 µM
[29] = second compound 3.16 µM, first compound 3.16 µM
[30] = second compound 3.16 µM, first compound 10 µM
[31] = second compound 10 µM, first compound 0.0316 µM
[32] = second compound 10 µM, first compound 0.1 µM
[33] = second compound 10 µM, first compound 0.316 µM
[34] = second compound 10 µM, first compound 1 µM
[35] = second compound 10 µM, first compound 3.16 µM
[36] = second compound 10 µM, first compound 10 µM
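Further: spheroids exposed to agents for 7 days before readout.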
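Wherever viability, T/C is given: percent viability relative to DMSO vehicle control taken as 100%.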

Question: `CC(C)n1c(=O)n(C)c2cnc3cc(F)c(-c4ccc(OCCCN5CCCCC5)nc4)cc3c21` + CN(C)c1ccc(Nc2c3ccc(NC(=O)CCN4CCCC4)cc3nc3cc(NC(=O)CCN4CCCC4)ccc23)cc1 was tested. Which IC50 (second compound 0.0316 µM) did it give?
Answer: Its IC50 is over 10 µM.

Question: And the IC50 (second compound 0.1 µM)?
Answer: The IC50 was over 10 µM.

Question: And the IC50 (second compound 0.316 µM)?
Answer: The IC50 was over 10 µM.

Question: And the IC50 (second compound 1 µM)?
Answer: The IC50 was over 10 µM.

Question: What about the IC50 (second compound 3.16 µM) of the same molecule?
Answer: Its IC50 is over 10 µM.

Question: What about the IC50 (second compound 10 µM) of the same molecule?
Answer: The IC50 was 0.414 µM.

Question: And the viability, T/C [1]?
Answer: Its viability, T/C is 92.8%.

Question: And the viability, T/C [2]?
Answer: The viability, T/C was 104%.

Question: And the viability, T/C [3]?
Answer: The viability, T/C was 108%.

Question: What about the viability, T/C [4] of the same molecule?
Answer: Its viability, T/C is 107%.

Question: What about the viability, T/C [5] of the same molecule?
Answer: The viability, T/C was 105%.

Question: What about the viability, T/C [6] of the same molecule?
Answer: The viability, T/C was 116%.

Question: And the viability, T/C [7]?
Answer: The viability, T/C was 101%.

Question: And the viability, T/C [8]?
Answer: Its viability, T/C is 107%.

Question: And the viability, T/C [9]?
Answer: Its viability, T/C is 94.3%.

Question: And the viability, T/C [10]?
Answer: Its viability, T/C is 101%.

Question: And the viability, T/C [11]?
Answer: Its viability, T/C is 105%.

Question: And the viability, T/C [12]?
Answer: The viability, T/C was 108%.

Question: What about the viability, T/C [13] of the same molecule?
Answer: Its viability, T/C is 96.8%.

Question: And the viability, T/C [14]?
Answer: Its viability, T/C is 98.3%.

Question: What about the viability, T/C [15] of the same molecule?
Answer: Its viability, T/C is 96%.

Question: What about the viability, T/C [16] of the same molecule?
Answer: Its viability, T/C is 102%.

Question: And the viability, T/C [17]?
Answer: The viability, T/C was 104%.

Question: And the viability, T/C [18]?
Answer: Its viability, T/C is 110%.

Question: What about the viability, T/C [19] of the same molecule?
Answer: Its viability, T/C is 94.1%.

Question: What about the viability, T/C [20] of the same molecule?
Answer: The viability, T/C was 109%.

Question: And the viability, T/C [21]?
Answer: Its viability, T/C is 97.6%.

Question: And the viability, T/C [22]?
Answer: The viability, T/C was 96.2%.

Question: And the viability, T/C [23]?
Answer: Its viability, T/C is 91.1%.

Question: And the viability, T/C [24]?
Answer: The viability, T/C was 94.6%.

Question: And the viability, T/C [25]?
Answer: The viability, T/C was 90.8%.

Question: And the viability, T/C [26]?
Answer: The viability, T/C was 105%.

Question: What about the viability, T/C [27] of the same molecule?
Answer: Its viability, T/C is 89.4%.

Question: What about the viability, T/C [28] of the same molecule?
Answer: Its viability, T/C is 70.8%.

Question: And the viability, T/C [29]?
Answer: Its viability, T/C is 61.1%.

Question: And the viability, T/C [30]?
Answer: The viability, T/C was 54.5%.

Question: What about the viability, T/C [31] of the same molecule?
Answer: Its viability, T/C is 72.7%.

Question: What about the viability, T/C [32] of the same molecule?
Answer: Its viability, T/C is 61.9%.

Question: And the viability, T/C [33]?
Answer: The viability, T/C was 51.7%.

Question: And the viability, T/C [34]?
Answer: Its viability, T/C is 46%.

Question: What about the viability, T/C [35] of the same molecule?
Answer: The viability, T/C was 21%.

Question: What about the viability, T/C [36] of the same molecule?
Answer: The viability, T/C was 13.2%.

Question: Which results are given for `CC1COCCN1c1cc(-c2ccnn2C)c2ccnc(-c3ccn[nH]3)c2n1` (centres undefined) + CN(C)c1ccc(Nc2c3ccc(NC(=O)CCN4CCCC4)cc3nc3cc(NC(=O)CCN4CCCC4)ccc23)cc1?
Answer: IC50 (second compound 0.0316 µM): < 0.0316 µM; IC50 (second compound 0.1 µM): < 0.0316 µM; IC50 (second compound 0.316 µM): < 0.0316 µM; IC50 (second compound 1 µM): < 0.0316 µM; IC50 (second compound 3.16 µM): < 0.0316 µM; IC50 (second compound 10 µM): < 0.0316 µM; viability, T/C [1]: 49.1%; viability, T/C [2]: 21.1%; viability, T/C [3]: 10.9%; viability, T/C [4]: 7.46%; viability, T/C [5]: 6.76%; viability, T/C [6]: 6.4%; viability, T/C [7]: 43.7%; viability, T/C [8]: 19.4%; viability, T/C [9]: 9.94%; viability, T/C [10]: 7.09%; viability, T/C [11]: 6.81%; viability, T/C [12]: 5.85%; viability, T/C [13]: 41.3%; viability, T/C [14]: 20.7%; viability, T/C [15]: 9.46%; viability, T/C [16]: 9.2%; viability, T/C [17]: 6.26%; viability, T/C [18]: 5.57%; viability, T/C [19]: 45.9%; viability, T/C [20]: 19.1%; viability, T/C [21]: 9.31%; viability, T/C [22]: 8.05%; viability, T/C [23]: 7.11%; viability, T/C [24]: 5.77%; viability, T/C [25]: 36.6%; viability, T/C [26]: 16.5%; viability, T/C [27]: 9.69%; viability, T/C [28]: 9.19%; viability, T/C [29]: 7.57%; viability, T/C [30]: 5.75%; viability, T/C [31]: 25%; viability, T/C [32]: 16.9%; viability, T/C [33]: 8.98%; viability, T/C [34]: 6.93%; viability, T/C [35]: 5.14%; viability, T/C [36]: 3.02%

Source: PubChem BioAssay AID2060503 (Molecular Pharmacology Branch, DTP, NCI, 2025)
